The record followed here is PubChem BioAssay (NCI).

Molecules are shown by their SMILES. Where “and” joins values, the source holds several entries; their conditions need not be identical. Equal values may be shown once.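 Values below derive from 48-hour exposures of cells grown in 96-well plates, with endpoints linearly interpolated between the two concentrations bracketing the appropriate inhibition level. GI50 is the concentration that inhibits growth by half. TGI: total growth inhibition.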

Experiment in all cases: inhibition of tumour cell growth, NCI panel, 48 h
Experiment [1] deals with SF-295 CNS.
Experiment [2] has as its system HOP-62 NSCLC.
Experiment [3] has as its system CCRF-CEM leukemia.
For experiment [4], the system named is SK-OV-3 ovarian.
The test system of experiment [5] is TK-10 renal.
Experiment [6] has as its system EKVX NSCLC.
Experiment [7] deals with SN12C renal.
Experiment [8] relates to A498 renal.
Experiment [9] relates to CAKI-1 renal.
Experiment [10] relates to DU-145 prostate.

`CCOC(=O)C1=C(C)NC2SC(=O)/C(=C\c3ccccc3Cl)N2C1c1ccccc1` (stereo not drawn): the GI50 in experiment [1], in experiment [2], in experiment [3], in experiment [4], in experiment [5] and in experiment [6] was above 100 µM in each case. Besides, the GI50 in experiment [7], in experiment [8], in experiment [9] and in experiment [10] was above 100 µM throughout. In addition, the TGI in experiment [1], in experiment [2], in [3], in experiment [4], in experiment [5] and in [6] was above 100 µM in each case. The TGI in [7], in experiment [8], in experiment [9] and in experiment [10] was above 100 µM in each case.

On to `CCCCN(CCCC)c1ccc(C(=N)c2ccc(N(C)C)cc2)cc1`, for which the GI50 in [1] was 0.349 µM; in experiment [2], 1.33 µM; in experiment [3], 0.544 µM; in [4] it was 1.36 µM; in experiment [5], 0.643 µM; in [6], 0.334 µM. In addition, the GI50 was 1.19 µM in experiment [7], 0.178 µM in experiment [8], 0.356 µM in experiment [9] and 1.03 µM in experiment [10]. Also, the TGI in experiment [1] was 1.34 µM; in experiment [2], 2.69 µM; in experiment [3], 3.24 µM; in experiment [4], 2.66 µM; in experiment [5], 1.84 µM; in experiment [6] it was 1.45 µM. Moreover, the TGI in experiment [7] amounted to 2.77 µM; in [8], 1.8 µM; in experiment [9], 1.49 µM; in [10], 2.23 µM.

For `CCN(CC)C(=O)CC1=C(C)/C(=C/c2[nH]c(-c3ccc[nH]3)cc2OC)N=C1C`, the GI50 was 0.361 µM in experiment [1]; 0.504 µM in [2]; 0.258 µM in experiment [3]; 0.658 µM in experiment [4]; 0.466 µM in experiment [5]; 0.452 µM in [6]. In addition, the figures for the GI50 in experiment [8], in experiment [9] and in [10] were 0.98 µM, 0.383 µM and 0.546 µM, respectively. Moreover, the TGI is 1.73 µM in experiment [1]; 11.6 µM in [2]; 35 µM in [3]; 8.3 µM in experiment [4]; 17.3 µM in [5]; 38.7 µM in experiment [6]. Moreover, the TGI was 7.12 µM in [8], 11.4 µM in experiment [9] and above 100 µM in experiment [10].

Turning to `O=[N+]([O-])c1cc([N+](=O)[O-])c(Cl)c(Cl)c1Cl`, the GI50 in experiment [1] is 8.15 µM; in [2] it was 1.67 µM; in experiment [3] it was 0.459 µM; in experiment [4], 5.84 µM; in [5] it was 1.8 µM; in experiment [6], 2.74 µM. For the same molecule, the GI50 in experiment [8] is 5.2 µM; in experiment [10], 1.57 µM. Also, the TGI was 23.1 µM in experiment [1]; 3.05 µM in experiment [2]; 5.78 µM in [3]; 18.4 µM in [4]; 3.65 µM in [5]; 10.5 µM in [6]. Also, the TGI in experiment [8] amounted to 17.9 µM; in experiment [10], 2.98 µM.

For `O=C(/C=C/C12c3ccccc3C(c3ccccc31)C1C(=O)N(c3ccccc3)C(=O)C12)c1ccc(Cl)cc1` (stereo not drawn), the GI50 is 2.45 µM in experiment [2]; 0.566 µM in experiment [3]; 5.28 µM in experiment [4]; 3.18 µM in experiment [5]; 1.85 µM in [6]; 2.34 µM in experiment [7]. In addition, the GI50 is 1.16 µM in experiment [8], 1.02 µM in [9] and 1.77 µM in experiment [10]. Besides, the TGI in experiment [2] is 6.86 µM; in experiment [3], above 100 µM; in [4], above 100 µM; in experiment [5], 25.1 µM; in experiment [6], 9.89 µM; in experiment [7], above 100 µM. Further, the TGI worked out at 2.44 µM in experiment [8], 3.52 µM in experiment [9] and 4.03 µM in experiment [10].

`C/C=C(\C)c1cc(=O)c2c(C)cc3c(c2o1)C(=O)c1c(O)c(C2CC(C)(N(C)C)C(O)C(C)O2)cc(C2CC(N(C)C)C(O)C(C)O2)c1C3=O` (stereo not drawn): the TGI was above 52 µM in experiment [3]; 0.729 µM in experiment [5]; 1.59 µM in experiment [6]; 0.453 µM in experiment [8]; 5.99 µM in [9]; 5.75 µM in experiment [10]. The GI50 in experiment [9] was 0.273 µM and 2.08 µM.

For the molecule `COc1ccc(C[n+]2c3ccccc3n3c4ccc(N)cc4ccc32)c(OC)c1OC`, the GI50 in [1] was 4.22 µM; in experiment [2], 7.4 µM; in [3] it was 4.28 µM; in [4], 10.4 µM; in experiment [5], 22.4 µM; in experiment [6], 3.08 µM. The GI50 in experiment [7] was 0.626 µM; in experiment [8], 17.5 µM; in experiment [10] it was 6.42 µM. The TGI in experiment [1] is 38.1 µM; in experiment [2], 33.1 µM; in experiment [3] it was 45.7 µM; in experiment [4], 49.2 µM; in experiment [5], 79.4 µM; in [6], 58.9 µM. Moreover, the TGI in experiment [7] came out at 11 µM; in experiment [8] it was 61.9 µM; in [10] it was 78.1 µM.

For `Cc1cc(=O)oc2c(CN3CCCCC3)c(O)ccc12`, the TGI in experiment [1], in experiment [2], in experiment [3], in [5], in experiment [6] and in [7] was above 100 µM each time. Further, the TGI in experiment [8], in [9] and in experiment [10] was above 100 µM each time.

In the case of `Cn1cc(C2=C(c3c4n(c5ccccc35)CCCC4)C(=O)NC2=O)c2ccccc21`, the GI50 in experiment [1] is 7.21 µM; in [2], above 17.6 µM; in [3], above 15.3 µM; in experiment [4], above 15.3 µM; in [5], above 20.1 µM; in experiment [7] it was 15.1 µM. The GI50 is 5.19 µM in experiment [8], 8.1 µM in experiment [9] and above 15 µM in [10]. The TGI in experiment [1], in experiment [2], in [3], in [4], in experiment [5] and in experiment [7] was above 25 µM each time. Also, the TGI in [8], in experiment [9] and in [10] was above 25 µM in each case.

Regarding `COc1ccc(-c2nn(-c3ccc(NC(=O)c4ccc(Cl)c(C(F)(F)F)c4)cc3)cc2-c2ccncc2)cc1Cl`, the GI50 is 0.217 µM in experiment [1]; 0.423 µM in experiment [2]; 0.582 µM in experiment [3]; 1.71 µM in [5]; 1.87 µM in experiment [6]; 2.34 µM in [7]. For the same molecule, the GI50 in experiment [8] was 0.237 µM; in experiment [9], 0.335 µM; in [10], 4.6 µM. The TGI is 0.79 µM in [1]; 4.88 µM in [2]; above 100 µM in [3]; above 32.8 µM in experiment [5]; above 100 µM in experiment [6]; above 100 µM in experiment [7]. The TGI in [8] was 4.47 µM; in experiment [9], 2.08 µM; in experiment [10], above 100 µM.

Consider `Cc1onc(-c2c(F)cccc2Cl)c1-c1ncc(-c2ccc(Cl)cc2)o1`, for which the GI50 in experiment [1] was 8.66 µM; in experiment [2], 8.45 µM; in experiment [3] it was 3.81 µM; in experiment [4], 9.33 µM; in experiment [5] it was 8.33 µM; in experiment [7], 5.34 µM. Besides, the GI50 was 5.09 µM in [8], 4.7 µM in experiment [9] and 14.6 µM in experiment [10]. In addition, the TGI in [1], in experiment [2], in experiment [3], in [4], in [5] and in experiment [7] was above 100 µM throughout. The TGI in experiment [8], in [9] and in [10] was above 100 µM throughout.

On to `COc1ccc(Cl)cc1Nc1nc(C(F)(F)F)ccc1C(=O)N/N=C/c1ccc([N+](=O)[O-])cc1`, for which the GI50 in experiment [1] is 1.17 µM; in experiment [2], 2.35 µM; in experiment [3] it was 30.8 µM; in [4], 1.73 µM; in experiment [5] it was 1.22 µM; in experiment [6], 2.01 µM. In addition, the GI50 in experiment [8] was 1.86 µM; in experiment [9], 1.46 µM; in [10], 1.27 µM. For the same molecule, the TGI in experiment [1] was 3.79 µM; in experiment [2], 11.4 µM; in experiment [3], above 100 µM; in [4] it was 5.77 µM; in experiment [5] it was 5.88 µM; in [6], 9.27 µM. For the same molecule, the figures for the TGI in experiment [8], in experiment [9] and in experiment [10] were 6.45 µM, 4.74 µM and 3.21 µM, respectively.
